Patent US20140329782A1, “COMBINED THERAPEUTIC AGENT” (priority 2011, published 2014)

How the values were obtained:
[1] = tested on: peripheral mononuclear cells isolated from the blood of the test subjects; settings: 100 μg/ml calcitriol, cited from earlier work
Crohn's disease = settings: cited from earlier work
[2] = tested on: patients suffering from persistent asthma (GINA II); experiment: Use and efficacy study in patients with persistent asthma (GINA II); assay type: in vivo, human
Protocol: • In the context of a first set of investigations, 11 patients from 32 to 65 years of age suffering from persistent asthma (GINA II) were treated with a combination therapy composed of inhaled glucocorticoid (beclomethasone, 2×200 μg/which inhalational) and inhaled long-acting beta-2 sympathomimetics (LABA, salmeterol) and also, perorally, theophylline. After one week of therapy, it was possible to achieve mild improvement of pulmonary function in 5 of the 11 test subjects. […] In two of the treated patients, it was also possible to reduce the beta-2 agonist demand by 10%. A further group based on 9 patients from 39 to 70 years of age having an identical indication, i.e., persistent asthma (GINA II), who were similarly administered with the abovementioned combination therapy composed of inhaled glucocorticoid and inhaled long-acting beta-2 sympathomimetics and also theophylline additionally received vitamin D for one week in a daily dose of 80 μg. After one week of therapy with the aforementioned dose, it was possible to achieve a mild to moderate improvement in pulmonary function in 6 of the 9 test subjects. After continued long-term therapy for 12 weeks, the persistent bronchial asthma had stabilized insofar as it was possible to reduce the inhaled glucocorticoid need by up to 60% in 7 of the 9 patients and it was possible to even completely temporarily discontinue the inhaled glucocorticoids in 1 of the 9 patients. […] In 4 of the treated patients, it was also possible to reduce the beta-2 agonist need by up to 40%.

[3] = in vivo; cited from earlier work
[4] = after long-term therapy for 12 weeks

C=C1/C(=C\C=C2/CCC[C@]3(C)[C@@H]([C@H](C)CCCC(C)(C)O)CC[C@@H]23)C[C@@H](O)C[C@@H]1O [calcitriol, 1,25-dihydroxyvitamin D3]
production of interferon gamma [1]: reduces | production of interleukin 10 [1]: stimulates | inhibition of TNF-alpha production by patient group ([1]; Crohn's disease patients vs healthy): only in cells from patients suffering from Crohn's disease and not in cells from healthy patients | production of TNF-alpha in peripheral mononuclear cells ([1]; cells from patients suffering from inflammatory bowel diseases): could be lowered

Cn1cnc([N+](=O)[O-])c1Sc1ncnc2nc[nH]c12 [azathioprine]
remission (Crohn's disease; maintaining remission): 83%

CCCC1O[C@@H]2C[C@H]3[C@@H]4CCC5=CC(=O)C=C[C@]5(C)[C@H]4[C@@H](O)C[C@]3(C)[C@]2(C(=O)CO)O1 (some centres unmarked) [budesonide]
systemic adverse effects (Crohn's disease; 6 mg of budesonide): frequent systemic adverse effects with cortisol suppression

vitamin D
patients in whom inhaled glucocorticoids could be completely temporarily discontinued ([2]; after 12 weeks): 1 of the 9 | patients in whom the beta-2 agonist demand could be reduced ([2]; after 12 weeks): 4 | patients in whom the inhaled glucocorticoid demand could be reduced ([2]; after 12 weeks): 7 of the 9 | reduction of the beta-2 agonist demand [2, 4]: up to 40% | reduction of the inhaled glucocorticoid demand [2, 4]: up to 60% | test subjects with improvement of pulmonary function ([2]; after one week of therapy): 6 of the 9 | tolerability ([2]; vitamin D 80 μg daily added to the combination therapy): well tolerated with no adverse effects

C=C1CC[C@H](O)C/C1=C/C=C1\CCC[C@]2(C)[C@@H]([C@H](C)CCCC(C)(C)O)CC[C@@H]12 [calcifediol, 25-Hydroxyvitamin D3]
half life [3]: about 2.5 weeks
